Source: US20250205195A1, “BENZYLOXY-BENZYLAMINYL AMINO ACID DERIVATIVE FOR ADJUSTING TSLP/TSLPR SIGNAL TRANSMISSION” (AMTIXBIO CO., LTD., priority 2021, published 2025)

Key:
[1] = test system: HDM-induced atopic dermatitis mice; test: House dust mite (HDM) atopic dermatitis mouse model, dermatitis score; type: in vivo, Nc/Nga mice; conditions: topical or oral, 10 days after administration, vs control group
Text: Nc/Nga mice (Supplier: Central Animal Laboratory, South Korea, Male, 8 weeks old) were used, with 8 mice per group. The experimental animals were allowed free access to Purina Nestle feed (Switzerland) and water. The mice were shaved using clippers and depilatory cream one day (day 0) before applying Df cream (Dermatophagoides farina cream, Biostir AD, Biostir Incorporation). Df cream was applied to the mouse dorsal area twice a week for 5 weeks to induce atopic dermatitis. After confirming lesions in all mice, compound 27 of the present invention was administered topically or orally for 3 weeks (21 days) from 2 weeks after Df cream application. For topical administration, compound 27 was mixed with 100% ethanol to achieve concentrations of 0.3%, 1%, or 3%, and applied once daily. It was applied to both ears (25 μL each) and the dorsal area (70 μL). 100% ethanol was used as the topical vehicle. For oral administration, compound 27 was administered at doses of 25 mpk (once daily, QD), 50 mpk (QD), or 10 mpk (twice daily, BID). […]
Skin indicators were recorded through visual observation once a week (on days 0, 7, 14, 21, 28, and 36). […] Each item was scored as follows: no symptoms (0 points), mild symptoms (1 point), moderate symptoms (2 points), and severe symptoms (3 points). The total score was calculated by summing up scores for all items.

interleukin-13 (IL-13) = test: PMA/ionomycin-induced interleukin-13 in RBL-2H3 cells (ELISA); type: cell-based, rat; conditions: RBL-2H3 cells, 0, 1, 2, 4 and 8 µg/mL, 24 h
Description: RBL-2H3 cells were seeded at an initial density of 2×10^5 cells/well in a 24-well plate and cultured at 37° C. for 16 to 24 hours. Subsequently, compound 27 of the present invention was added to the RBL-2H3 cell culture medium at final concentrations of 0, 1, 2, 4, and 8 µg/mL, and the cells were cultured at 37° C. for 1 hour. Next, to induce interleukin-13, the culture medium was treated with PMA ([…], Sigma-Aldrich, USA) and ionomycin (Sigma-Aldrich, USA) to final concentrations of 50 ng/mL and […], respectively, and the cells were cultured for an additional 24 hours at 37° C. The culture supernatant was then collected, and the amount of induced interleukin-13 from RBL-2H3 cells was determined using an ELISA kit (R&D Systems, USA) according to the manufacturer's instructions. FIG. 2 (b) represents the results. […] This indicates the anti-inflammatory effect of compound 27 of the present invention.

[2] = test system: HDM-induced atopic dermatitis mice; test: HDM (Df cream) atopic dermatitis mouse model, skin-specific memory T cell study; type: in vivo, Nc/Nga mice
Text: Nc/Nga mice (purchased from Central Laboratory Animal, male, 6 weeks old) were used, with 2 mice per group. The experimental animals were allowed to freely access to food and water. Mice were shaved using clippers and depilatory cream before the application of Df cream. Df cream (dermatophagoides farina cream) (Biostir AD, Biostir Incorporation) was applied to the dorsal area of the mice 3 times a week for 4 weeks to induce atopic dermatitis. After confirming lesions induced in all mice, compound 27 of the present invention was applied topically to the skin three times a week for three weeks starting four weeks after the Df cream treatment. In contrast to other examples, this example excluded the simultaneous application of the test drug (compound 27 of the present invention) and the atopic dermatitis-inducing agent during the induction period. The compound of the present invention (8 g/mL and […]) was applied to the skin in a volume of 100 μL. As a positive control, 0.1% dexamethasone was topically applied to the mouse skin for comparison.
Erythema, hemorrhage, wounds, dryness, swelling, and shedding in mice were observed visually and compared using the SCORAD score. […] FIG. 12 graphically represents the changes in the atopic dermatitis mouse model's skin scores due to the treatment with each test substance (Wilcoxon-signed rank test; P<0.05 with statistically significant three mice were examined from each group).
A mouse IgE ELISA Kit (BioLegend, San Diego, CA, USA) and a mouse DF-specific IgE ELISA Kit (BioLegend, San Diego, CA, USA) were used according to the manufacturer's instructions to measure IgE in mouse serum and mouse DF-specific IgE. Changes in the levels of total IgE and DF-specific IgE in the serum were presented in FIGS. 13 (a) and (b), respectively.
Skin tissue changes were examined using Hematoxylin and Eosin (H&E) staining (refer to FIG. 14) (Data are shown as mean±standard deviation (SD). ** P<0.01, * P<0.05). Additionally, changes in eosinophils and mouse epidermal thickness were measured (see FIG. 14).
The results of the analysis of T cell fractions in the skin of atopic dermatitis mouse models treated with compound 27 of the present invention are presented in FIGS. 16 and 17 (data are shown as mean±standard deviation (SD). ** P<0.01, * P<0.05).

[3] = test system: DNFB-induced atopic dermatitis mice; test: DNFB-induced atopic dermatitis mouse model, itch scratching test; type: in vivo, ICR mice; conditions: 1˜10 mg/kg, ip, po or topical, daily for one week, 30 min recording, vs control group
Description: ICR mice (Supplier: Koatech, Gyeonggi, South Korea, Male, 9 weeks old) were used. After acclimatization to the environment for one week, the mice were divided into treatment and control groups, and then hair was removed from the area (dorsal area) where the drug was applied on day 0, 0.5% DNFB (50 μL) diluted in 99% acetone, was applied to the dorsal area. Subsequently, on days 5, 8, 10 and 14, additional applications of 0.2% DNFB (20 μL) were applied to induce atopic dermatitis. After 7 days of DNFB treatment, once skin lesions were confirmed in all mice, compound 27 of the present invention was administered daily for one week via intraperitoneal (ip), oral (po), or topical (dermal) routes.
For the groups treated with the compound 27 of the present invention (1˜10 mg/kg) and the control group, mice were separated on days 5, 8, 11 and 15, acclimatized for 1 hour, and their scratching behavior patterns were recorded and analyzed for 30 minutes.

skin-specific T cells = test: FACS analysis of T cell fractions in skin tissue isolated from atopic dermatitis patients; type: cell-based, human; conditions: patient skin tissue, 16 g/mL, 8 g/mL
Text: For tissues isolated from the skin of atopic dermatitis patients (Yonsei Severance Hospital, South Korea) followed by the treatment of the compound 27 of the present invention, T cell fractions were compared, and the results are presented in FIG. 16 (Data are shown as mean standard deviation (SD). ** P<0.01, * P<0.05).

## CCC(NC)C(=O)NCc1ccc(OCc2ccc(C(F)(F)F)cc2)cc1 (racemic) [Compound 27, (R)/(S)-2-(methylamino)-N-(4-((4-trifluoromethyl)benzyl)oxy)benzyl)butanamide]
[1]
  improvement of skin lesions (Modified SCORAD score): superior effect
interleukin-13 (IL-13)
  amount of induced interleukin-13: decreased proportionally
[2]; FACS of mouse skin, 16 g/mL, 8 g/mL
  proportion of skin-specific T cells (CD3+, CD4+, CD69+, CD103+): concentration-dependent significant decrease
[2]; FACS of mouse skin, vs 0.1% dexamethasone
  numbers of CD69+ T cells and CD103+ T cells: statistically significant decrease
[2]; H&E staining, topical
  eosinophil count in skin tissue: concentration-dependent decrease
[2]; H&E staining, with increasing drug concentration
  epidermal thickness: appeared to thin
[2]; […], 8 g/mL topical
  atopic dermatitis symptoms (skin scores, FIG. 12): improved atopic dermatitis symptoms in a concentration-dependent manner
[2]; topical, three times a week for three weeks, compound vs 0.1% dexamethasone positive control
  erythema, hemorrhage, dryness, wounds, swelling and shedding (visual, SCORAD): significant reduction
[3]
  scratching frequency: significantly decreased
skin-specific T cells
  CD69+ T cells and CD103+ T cells: remarkable reduction
  proportion of skin-specific T cells: concentration-dependent significant decrease
